Assays:
XALD fibroblasts = experiment: Fatty acid β-oxidation of 1-14C-labeled fatty acids; assay type: cell-based, human; conditions: XALD fibroblasts, five days; FIG. 1B
Description: Fatty acid β-oxidation activity in XALD fibroblasts was determined by measuring their capacity to degrade 1-^14C-labeled fatty acids to water-soluble products as described in McGuiness et al., 2003.
4PBA-induced peroxisomal VLCFA β-oxidation (degradation) is dependent on mitochondrial long chain fatty acid (LCFA) β-oxidation (McGuinness et al., 2003). […] Antimycin A (AA) is a cytochrome c reductase inhibitor that inhibits the mitochondrial electron transport chain, mitochondrial biogenesis, and thus, cellular respiration (Ranganathan et al., 2009). […] XALD fibroblasts were treated with 4PBA in the presence or absence of antimycin A (AA), a cytochrome c reductase inhibitor, for five days and β-oxidation levels of LCFA (C16:0) and VLCFA (C24:0) levels were measured.

FL-SMN mRNA = experiment: RT-PCR of FL-SMN and total SMN mRNA in spinal muscular atrophy fibroblasts; assay type: cell-based, human
Description: Following the manufacturer's protocols, DNase I-treated cDNA was synthesized using Superscript III or Thermoscript reverse transcriptase (Invitrogen). PCR reactions were performed in duplicate on the Roche Lightcycler 3.5 (Basel, Switzerland) or the Bio-Rad iCycler (Hercules, Calif.) using Quantitech SYBR green PCR mix (Qiagen, Valencia, Calif.). GeNorm software calculated a normalization factor for each sample using the relative amounts of at least two of the following reference genes, β2-microglobulin, […], actin, and/or eukaryotic elongation factor 1A (Vandesompele et al., 2002). Primers for the various experiments described herein are listed below.
Type I and type III spinal muscular atrophy (SMA I or SMA III) fibroblasts were treated with SFN for the indicated times. The relative fold increase in the ratio of FL-SMN/total SMN transcripts compared with the untreated cell line (normalized to 1) is plotted. Cell lines from left to right are GM09677, GM00232 and 2906. N≧2 independent experiments.
Spinal muscular atrophy fibroblasts were treated with 1.5 mM SFN alone for 51 hr. (SMA I, GM09677) or treated with 0.5 mM SFN for 8 hr. (SMA III, 2906) with or without […] SP600125 (JNK inhibitor), 2.5 mM 3-methyladenine (autophagy inhibitor, APG), […] antimycin A (mitochondrial inhibitor, MITO) or […] sirtinol (SIRT1 inhibitor). The fold increases in FL-SMN expression compared with either GAPDH or total SMN expression and the fold increase in total SMN expression compared with GAPDH expression after SFN treatment is plotted. Untreated values were normalized to 1 and are indicated by the horizontal line. (n=1 per cell line, performed in duplicate)
To determine which stress pathways are necessary for the increase in FL-SMN production, spinal muscular atrophy fibroblasts were co-treated with SFN and either SP600125, an inhibitor of the JNK pathway (Bennett et al., 2001), 3-methyladenine, an inhibitor of the autophagy pathway (Seglen et al., 1982), antimycin A, a mitochondrial inhibitor (Ranganathan et al., 2009), or sirtinol, an inhibitor of SIRT1 activity (Grozinger et al., 2001). […] SIRT1, an NAD+-dependent deacetylase, is known to regulate cellular stress responses, cellular metabolism and cellular survival (Salminen et al., 2009). Specifically, SIRT1 inhibition reduces the induction of HSR genes (Westerheide et al., 2009); SIRT1 activity enhances SOD2 expression (Anastasiou et al., 2006); SIRT1 negatively regulates the mammalian target of rapamycin triggering autophagy (Haigis et al., 2010); and SIRT1 activates mitochondrial biogenesis via the stress-responsive transcription factor PGC1a (Yu et al., 2009). The yeast ortholog Sir2 is necessary for the induction of mitochondrial biogenesis by 4PBA or HU in Saccharomyces cerevisiae (Cha 2010). […] However, SIRT1 can be activated by various post-translational changes. Therefore, the potential involvement of SIRT1 in the therapeutic effects of these drugs by inhibition studies was evaluated.

liver of mice = conditions: 3- and 12-hours after single dose 90 mg/kg by gavage, Hu et al., 2005; cited from earlier work
[1] = Zhao et al., 2005; Clarke et al., 2011; cited from earlier work
[2] = human research studies; cited from earlier work
K562 cells = experiment: Flow cytometric analysis of peroxisome proliferation (PEX14); assay type: cell-based, human; conditions: eight to ten days, FIG. 1E
Description: Fibroblasts (70-95% confluent) were treated with 5 mM 4PBA (1 mM for JNK inhibition studies), 600 μM HU, 200 nM TSA, or 5 μM SFN unless otherwise specified.
K562 cells were incubated with 50 nM Mitotracker Green FM, 300 nM Mitotracker Deep Red 633 (Invitrogen), or PBS as a negative control for 15 min at 37° C. or stained with anti-Pex14 using Caltag Fix and Perm reagents (Invitrogen) following the manufacturer's instructions. Stained cells were suspended in 0.5 mL of 1% paraformaldehyde/PBS and subjected to flow cytometric analysis (FACScan machine, Becton Dickinson, Franklin Lakes, N.J.).
K562 cells were treated with SB and HU for four to ten days. […] (n≧3 unless otherwise noted).
To determine whether the induction of mitochondrial biogenesis by SB or HU treatment was necessary for the induction of HbF-producing cell production, K562 cells were treated with SB or HU in the presence or absence of AA. […] After two to four days of drug treatment with or without AA, mitochondrial mass was measured using Mitotracker, a mitochondrial stain. Fold change (drug treated/control) is shown. […] After four days of drug treatment with or without AA, cells were stained with DAF. […] After eight to ten days of drug treatment, peroxisome proliferation was measured using an antibody against the peroxisomal membrane protein, PEX14 and a FITC-labeled secondary antibody. […]

[3] = test system: sickle cell disease (SCD); conditions: cited from earlier work
HbF = conditions: Keefer et al., 2006; cited from earlier work

4-phenylbutyrate [4PBA]
LCFA (C16:0) β-oxidation (XALD fibroblasts): induced | VLCFA (C24:0) β-oxidation (XALD fibroblasts): induced

C[S@@+]([O-])CCCCN=C=S [SFN, 1-isothiocyanato-4R-(methylsulfinyl)butane]
relative expression of FL-SMN transcripts normalized to GAPDH or total SMN transcript levels (FL-SMN mRNA; FIG. 8B): increased | total SMN transcript levels normalized to GAPDH transcript levels (FL-SMN mRNA; FIG. 8B): remained unchanged | FL-SMN mRNA expression compared with total SMN transcription (FL-SMN mRNA; SMA type I lines GM09677, GM00232 and SMA type III line 96-2906, FIG. 8A): significantly increased | Heat shock proteins and ubiquitin/26 S proteasome subunits in liver (liver of mice): induced | blood brain barrier crossing [1]: crosses the blood brain barrier | adverse effects [2]: not shown any significant adverse effects

NC(=O)NO [HU, hydroxyurea]
peroxisomal proliferation (K562 cells): significantly increased | cognitive function in children with SCD ([3]; Puffer et al., 2007): improve cognitive function | incidence of strokes ([3]; SCD): decreases | HbF levels (HbF): increased
